{"source": "patent US20260356957A1", "about": "“METHODS FOR TREATMENT OF NON-SMALL CELL LUNG CANCER (NSCLC)” (Janssen Biotech, Inc., priority 2023, published 2026)", "key": {"[1]": {"tested_on": "EGFR-mutated locally advanced or metastatic NSCLC", "assay": "MARIPOSA Phase 3, progression-free survival by BICR", "type": "in vivo, human", "source_text": "The primary endpoint of the study is PFS (using RECIST v1.1 guidelines) as assessed by blinded independent central review (BICR)."}, "[2]": {"tested_on": "EGFR-mutated locally advanced or metastatic NSCLC", "assay": "MARIPOSA Phase 3, overall survival", "type": "in vivo, human"}, "[3]": {"tested_on": "EGFR-mutated locally advanced or metastatic NSCLC", "assay": "MARIPOSA Phase 3, objective response by BICR (RECIST v1.1)", "type": "in vivo, human", "settings": "best overall response"}, "[4]": {"tested_on": "EGFR-mutated locally advanced or metastatic NSCLC", "assay": "MARIPOSA Phase 3, duration of response by BICR", "type": "in vivo, human", "settings": "confirmed responders"}, "[5]": {"tested_on": "EGFR-mutated locally advanced or metastatic NSCLC", "assay": "MARIPOSA Phase 3, progression-free survival after first subsequent therapy (PFS2)", "type": "in vivo, human", "source_text": "The efficacy population included all patients who had undergone randomization. Tick marks indicate censoring of data. […]"}, "[6]": {"tested_on": "EGFR-mutated locally advanced or metastatic NSCLC", "assay": "MARIPOSA Phase 3, time to symptomatic progression (TTSP)", "type": "in vivo, human"}, "[7]": {"tested_on": "EGFR-mutated locally advanced or metastatic NSCLC", "assay": "MARIPOSA Phase 3, time to subsequent therapy (TTST) and subsequent therapy", "type": "in vivo, human"}, "[8]": {"tested_on": "EGFR-mutated NSCLC with brain metastasis", "assay": "MARIPOSA Phase 3, intracranial PFS by BICR in participants with history of brain metastasis", "type": "in vivo, human", "source_text": "• 1. […] Intracranial PFS [Time Frame: Up to approximately 42 months]. […] Incidence and Severity of Adverse Events (AEs) [Time Frame: Up to approximately 60 months]. Incidence and severity of treatment emergent adverse events (TEAEs) will be reported. Any adverse event occurring at or after the initial administration of study treatment through the day of last dose plus 30 days, or until the start of subsequent anticancer therapy (if earlier), is considered to be treatment emergent. • 8. Number of Participants with Clinical Laboratory Abnormalities [Time Frame: Up to approximately 60 months]. Number of participants with clinical laboratory abnormalities (serum chemistry, hematology, blood coagulation, and urine samples) will be reported. • 9. Number of Participants with Vital Signs Abnormalities [Time Frame: Up to approximately 60 months]. Number of participants with vital signs abnormalities (temperature, heart rate, respiratory rate, oxygen saturation, blood pressure) will be reported. • 10. Number of Participants with Physical Examination Abnormalities [Time Frame: Up to approximately 60 months]. Number of participants with physical examination abnormalities will be reported. • 11. […] Number of Participants with Anti-Amivantamab Antibodies [Time Frame: Up to approximately 42 months]. […] Change from Baseline in Non-Small Cell Lung Cancer-Symptom Assessment Questionnaire (NCSLC-SAQ) [Time Frame: Baseline Up to approximately 42 months]. The NSCLC-SAQ contains 7 items that assess cough, pain, dyspnea, fatigue, and poor appetite over a 7-day recall period. Each multi-item scale and individual item will be summarized using count and percent by visit. • 15. Change from Baseline in European Organization of Research and Treatment of Cancer Quality of Life Questionnaire Core 30 (EORTC-QLQ-C30) [Time Frame: Baseline Up to approximately 42 months]. EORTC-QLQ-C30 is a core 30-item questionnaire for evaluating the health-related quality of life (HRQOL) of participants participating in cancer clinical studies. • 16."}, "[9]": {"assay": "MARIPOSA Phase 3, adverse events", "type": "in vivo, human", "settings": "in vivo", "source_text": "• 1. […] Incidence and Severity of Adverse Events (AEs) [Time Frame: Up to approximately 60 months]. Incidence and severity of treatment emergent adverse events (TEAEs) will be reported. Any adverse event occurring at or after the initial administration of study treatment through the day of last dose plus 30 days, or until the start of subsequent anticancer therapy (if earlier), is considered to be treatment emergent. • 8. Number of Participants with Clinical Laboratory Abnormalities [Time Frame: Up to approximately 60 months]. Number of participants with clinical laboratory abnormalities (serum chemistry, hematology, blood coagulation, and urine samples) will be reported. • 9. Number of Participants with Vital Signs Abnormalities [Time Frame: Up to approximately 60 months]. Number of participants with vital signs abnormalities (temperature, heart rate, respiratory rate, oxygen saturation, blood pressure) will be reported. • 10. Number of Participants with Physical Examination Abnormalities [Time Frame: Up to approximately 60 months]. Number of participants with physical examination abnormalities will be reported. • 11. […] The NSCLC-SAQ contains 7 items that assess cough, pain, dyspnea, fatigue, and poor appetite over a 7-day recall period. Each multi-item scale and individual item will be summarized using count and percent by visit. • 15. […] EORTC-QLQ-C30 is a core 30-item questionnaire for evaluating the health-related quality of life (HRQOL) of participants participating in cancer clinical studies. • 16."}, "[10]": {"tested_on": "EGFR-mutated NSCLC", "settings": "all prespecified subgroups; cited from earlier work"}}}
{"compound": "C=CC(=O)Nc1cc(Nc2nccc(-n3cc(CN(C)C)c(-c4ccccc4)n3)n2)c(OC)cc1N1CCOCC1", "note": "[Lazertinib, N-(5-(4-(4-((dimethylamino)methyl)-3-phenyl-1H-pyrazol-1-yl)pyrimidin-2-ylamino)-4-methoxy-2-morpholinophenyl) acrylamide]", "values": [{"measurement": "PFS 6-month event-free rate (95% CI)", "setting": "[1]", "value": "0.85 (0.79, 0.89)"}, {"measurement": "PFS 18-month event-free rate (95% CI)", "setting": "[1]", "value": "0.52 (0.44, 0.58)"}, {"measurement": "PFS 24-month event-free rate (95% CI)", "setting": "[1]", "value": "0.35 (0.27, 0.42)"}, {"measurement": "PFS 30-month event-free rate (95% CI)", "setting": "[1]", "value": "0.30 (0.22, 0.39)"}, {"measurement": "Censored (PFS)", "setting": "[1]; Full Analysis Set", "value": "95 (44.0%) (%)"}, {"measurement": "PFS time to event, 75th percentile (95% CI)", "setting": "[1]; Full Analysis Set", "value": "NE (24.05, NE)"}, {"measurement": "Censored (OS)", "setting": "[2]; Full Analysis Set", "value": "160 (74.1%) (%)"}, {"measurement": "Event (OS)", "setting": "[2]; Full Analysis Set", "value": "56 (25.9%) (%)"}, {"measurement": "OS 12-month event-free rate (95% CI)", "setting": "[2]; Full Analysis Set", "value": "0.86 (0.81, 0.90)"}, {"measurement": "OS 18-month event-free rate (95% CI)", "setting": "[2]; Full Analysis Set", "value": "0.78 (0.71, 0.83)"}, {"measurement": "OS 24-month event-free rate (95% CI)", "setting": "[2]; Full Analysis Set", "value": "0.71 (0.61, 0.78)"}, {"measurement": "OS 30-month event-free rate (95% CI)", "setting": "[2]; Full Analysis Set", "value": "0.68 (0.58, 0.75)"}, {"measurement": "OS time to event, 75th percentile (95% CI)", "setting": "[2]; NE = not estimable", "value": "NE (NE, NE)"}, {"measurement": "Median overall survival (95% CI)", "setting": "[2]; interim analysis, NE = not estimable", "value": "NE (NE, NE)"}, {"measurement": "Complete Response (CR)", "setting": "[3]", "value": "9 (4.2%) (%)"}, {"measurement": "Not Evaluable (NE)", "setting": "[3]", "value": "5 (2.3%) (%)"}, {"measurement": "Progressive Disease (PD)", "setting": "[3]", "value": "9 (4.2%) (%)"}, {"measurement": "Censored (DOR)", "setting": "[4]", "value": "77 (48.1%) (%)"}, {"measurement": "Event (DOR)", "setting": "[4]", "value": "83 (51.9%) (%)"}, {"measurement": "DOR time to event, 75th percentile (95% CI)", "setting": "[4]; NE = not estimable", "value": "NE (NE, NE)"}, {"measurement": "Event (PFS2)", "setting": "[5]; Full Analysis Set", "value": "58 (26.9%) (%)"}, {"measurement": "PFS2 time to event, 75th percentile (95% CI)", "setting": "[5]; NE = not estimable", "value": "NE (28.94, NE)"}, {"measurement": "Death without Symptomatic PD", "setting": "[6]; Full Analysis Set", "value": "24 (11.1%) (%)"}, {"measurement": "Event (TTSP)", "setting": "[6]; Full Analysis Set", "value": "70 (22.4%) (%)"}, {"measurement": "TTSP 6-month event-free rate (95% CI)", "setting": "[6]; Full Analysis Set", "value": "0.90 (0.85, 0.93)"}, {"measurement": "TTSP 12-month event-free rate (95% CI)", "setting": "[6]; Full Analysis Set", "value": "0.79 (0.72, 0.84)"}, {"measurement": "TTSP 18-month event-free rate (95% CI)", "setting": "[6]; Full Analysis Set", "value": "0.71 (0.64, 0.76)"}, {"measurement": "TTSP 24-month event-free rate (95% CI)", "setting": "[6]; Full Analysis Set", "value": "0.65 (0.58, 0.72)"}, {"measurement": "TTSP 30-month event-free rate (95% CI)", "setting": "[6]; Full Analysis Set", "value": "0.61 (0.52, 0.69)"}, {"measurement": "TTSP time to event, 25th percentile (95% CI)", "setting": "[6]; Full Analysis Set", "value": "13.80 (10.41, 18.56) months"}, {"measurement": "TTSP Median (95% CI)", "setting": "[6]; NE = not estimable", "value": "NE (NE, NE)"}, {"measurement": "TTSP time to event, 75th percentile (95% CI)", "setting": "[6]; NE = not estimable", "value": "NE (NE, NE)"}, {"measurement": "TTST 6-month event-free rate (95% CI)", "setting": "[7]; Full Analysis Set", "value": "0.90 (0.85, 0.93)"}, {"measurement": "TTST 12-month event-free rate (95% CI)", "setting": "[7]; Full Analysis Set", "value": "0.71 (0.66, 0.78)"}, {"measurement": "TTST 18-month event-free rate (95% CI)", "setting": "[7]; Full Analysis Set", "value": "0.60 (0.53, 0.66)"}, {"measurement": "TTST 24-month event-free rate (95% CI)", "setting": "[7]; Full Analysis Set", "value": "0.50 (0.43, 0.58)"}, {"measurement": "TTST time to event, 75th percentile (95% CI)", "setting": "[7]; NE = not estimable", "value": "NE (NE , NE)"}, {"measurement": "Event (intracranial PFS)", "setting": "[8]", "value": "37 (43.0%) (%)"}, {"measurement": "Intracranial PFS time to event, 75th percentile (95% CI)", "setting": "[8]; NE = not estimable", "value": "NE (22.67, NE)"}, {"measurement": "Safety profile", "setting": "[9]", "value": "well defined and tolerable, and largely consistent with that seen with other 3rd generation EGFR TKI"}, {"measurement": "PFS vs gefitinib", "setting": "[10]", "value": "improved PFS compared to the first generation EGFR TKI gefitinib in all prespecified subgroups"}]}
{"compound": "Amivantamab: IgG1 anti-EGFR/c-Met bispecific antibody described in U.S. Pat. No. 9,593,164; SEQ ID NO: 1-20", "values": [{"measurement": "Safety profile", "setting": "[9]", "value": "well defined and tolerable, largely consistent with its on-target activity against the EGFR and MET pathways"}]}
